From patent publication US10183022B2, “Pharmaceutical composition for treating ulcerative colitis” (EA Pharma Co., Ltd., priority 2014, dated 2019)

Experiments:
[1] = tested on: ulcerative colitis patients in an active stage; experiment: Clinical study, 960 mg orally 3 times a day for 8 weeks: subscore for mucosal finding (large intestine endoscopic examination), mucosal remission rate; assay type: in vivo, human; design: Cases by subscore for mucosal finding, figure in parentheses: unit not given here
Description: (§1) The compound of Example 1 or the compound of Comparative Example 1 was orally administered after meals 3 times a day. The number of the given tablets was 8 per administration (i.e., the amount of the compound (1) of Example 1 administered was 960 mg per administration). The administration period was 8 weeks. The compounds were administered until the timing after the breakfast on the day before the assessment day at Week 8.
(3) Mucosal Finding (Large Intestine Endoscopic Examination) [Investigation Timings: Weeks 0 and 8 (or Discontinuation Time)]
The investigators or sub-investigators conducted the endoscopic examination on the large intestine, and checked the state of the large intestinal mucosa.
The endoscopic examination was conducted during a time from 7 days before Week 8 (or discontinuation time) until a medical interview at Week 8 (or discontinuation time). Note that the endoscopic examination on the large intestine at Week 8 (or discontinuation time) was conducted by the same physician at Week 0 when the situation allowed.
The assessment at the site served as the “subscore for mucosal finding” of the Mayo score. At Week 8 (or discontinuation time) also, the same site as that at Week 0 was assessed as the “subscore for mucosal finding” of the Mayo score.
A mucosal remission rate is a proportion of subjects each having a Mayo score with a subscore for mucosal finding of 1 point or less.

[2] = tested on: ulcerative colitis patients in an active stage; experiment: Clinical study, 960 mg orally 3 times a day for 8 weeks: subscore for stool frequency of Mayo score; assay type: in vivo, human; design: Cases by subscore for stool frequency, figure in parentheses: unit not given here
Description: as §1
[Investigation Timings: Weeks 0, 2, 4, and 8 (or Discontinuation Time)]
Based on the contents described in the symptom-recording diaries and so on, the investigators or sub-investigators investigated stool frequencies in 3 days immediately before each assessment day. Note that when the endoscopic examination on the large intestine was conducted, the investigation days were set to be the closest three days excluding the day of the endoscopic examination on the large intestine, the following day, and if a pre-treatment was performed for the endoscopic examination on the large intestine, the pre-treatment day.
The investigators or sub-investigators investigated the stool frequency per day before the primary disease appeared, which served as a “normal frequency.” An average value (rounded to the nearest whole number) of the stool frequencies of the investigated three days was compared with the “normal frequency,” and scored according to the following criteria.

## COC(=O)[C@H](Cc1ccc(-n2c(=O)c3cc(N(C)C)ccc3n(C)c2=O)cc1)NC(=O)c1c(Cl)cccc1Cl [Example 1, methyl(2S)-2-(2,6-dichlorobenzamide)-3-{4-[6-(dimethylamino)-1-methyl-2,4-dioxo-1,4-dihydroquinazolin-3(2H)-yl]phenyl}propanoate]
[1]; Week 0, score 2
  Cases by subscore for mucosal finding, figure in parentheses: 88.2
  Number of cases by subscore for mucosal finding: 45
[1]; Week 0, score 3
  Cases by subscore for mucosal finding, figure in parentheses: 11.8
  Number of cases by subscore for mucosal finding: 6
[1]; Week 8
  Difference in mucosal remission rates, Example 1 vs Comparative Example 1 (placebo): 29.4%
[1]; Week 8, 51 cases analyzed
  Mucosal remission cases: 30
[1]; Week 8, all subjects
  Mucosal remission rate: 58.8%
[1]; Week 8, score 0
  Cases by subscore for mucosal finding, figure in parentheses: 17.0
  Number of cases by subscore for mucosal finding: 8
[1]; Week 8, score 1
  Cases by subscore for mucosal finding, figure in parentheses: 46.8
  Number of cases by subscore for mucosal finding: 22
[1]; Week 8, score 2
  Cases by subscore for mucosal finding, figure in parentheses: 34.0
  Number of cases by subscore for mucosal finding: 16
[1]; Week 8, score 3
  Cases by subscore for mucosal finding, figure in parentheses: 2.1
  Number of cases by subscore for mucosal finding: 1
[1]; Week 8 score 0, Week 0 score 2
  Number of cases, cross tabulation of subscore for mucosal finding: 7
[1]; Week 8 score 0, Week 0 score 3
  Number of cases, cross tabulation of subscore for mucosal finding: 1
[1]; Week 8 score 1, Week 0 score 2
  Number of cases, cross tabulation of subscore for mucosal finding: 22
[1]; Week 8 score 1, Week 0 score 3
  Number of cases, cross tabulation of subscore for mucosal finding: 0
[1]; Week 8 score 2, Week 0 score 2
  Number of cases, cross tabulation of subscore for mucosal finding: 13
[1]; Week 8 score 2, Week 0 score 3
  Number of cases, cross tabulation of subscore for mucosal finding: 3
[1]; Week 8 score 3, Week 0 score 2
  Number of cases, cross tabulation of subscore for mucosal finding: 0
[1]; Week 8 score 3, Week 0 score 3
  Number of cases, cross tabulation of subscore for mucosal finding: 1
[1]; body weight 50 kg or more and disease period less than 5 years (16/22 cases)
  Mucosal remission rate: 72.7%
[2]; Week 0, score 0
  Cases by subscore for stool frequency, figure in parentheses: 3.9
  Number of cases by subscore for stool frequency: 2
[2]; Week 0, score 1
  Cases by subscore for stool frequency, figure in parentheses: 17.6
  Number of cases by subscore for stool frequency: 9
[2]; Week 0, score 2
  Cases by subscore for stool frequency, figure in parentheses: 41.2
  Number of cases by subscore for stool frequency: 21
[2]; Week 0, score 3
  Cases by subscore for stool frequency, figure in parentheses: 37.3
  Number of cases by subscore for stool frequency: 19
[2]; Week 2, score 0
  Cases by subscore for stool frequency, figure in parentheses: 9.8
  Number of cases by subscore for stool frequency: 5
[2]; Week 2, score 1
  Cases by subscore for stool frequency, figure in parentheses: 25.5
  Number of cases by subscore for stool frequency: 13
[2]; Week 2, score 2
  Cases by subscore for stool frequency, figure in parentheses: 49.0
  Number of cases by subscore for stool frequency: 25
[2]; Week 2, score 3
  Cases by subscore for stool frequency, figure in parentheses: 15.7
  Number of cases by subscore for stool frequency: 8
[2]; Week 2 score 0, Week 0 score 0
  Number of cases, cross tabulation of subscore for stool frequency: 2
[2]; Week 2 score 0, Week 0 score 1
  Number of cases, cross tabulation of subscore for stool frequency: 1
[2]; Week 2 score 0, Week 0 score 2
  Number of cases, cross tabulation of subscore for stool frequency: 1
[2]; Week 2 score 0, Week 0 score 3
  Number of cases, cross tabulation of subscore for stool frequency: 1
[2]; Week 2 score 1, Week 0 score 0
  Number of cases, cross tabulation of subscore for stool frequency: 0
[2]; Week 2 score 1, Week 0 score 1
  Number of cases, cross tabulation of subscore for stool frequency: 6
[2]; Week 2 score 1, Week 0 score 2
  Number of cases, cross tabulation of subscore for stool frequency: 5
[2]; Week 2 score 1, Week 0 score 3
  Number of cases, cross tabulation of subscore for stool frequency: 2
[2]; Week 2 score 2, Week 0 score 0
  Number of cases, cross tabulation of subscore for stool frequency: 0
[2]; Week 2 score 2, Week 0 score 1
  Number of cases, cross tabulation of subscore for stool frequency: 2
[2]; Week 2 score 2, Week 0 score 2
  Number of cases, cross tabulation of subscore for stool frequency: 15
[2]; Week 2 score 2, Week 0 score 3
  Number of cases, cross tabulation of subscore for stool frequency: 8
[2]; Week 2 score 3, Week 0 score 0
  Number of cases, cross tabulation of subscore for stool frequency: 0
[2]; Week 2 score 3, Week 0 score 1
  Number of cases, cross tabulation of subscore for stool frequency: 0
[2]; Week 2 score 3, Week 0 score 2
  Number of cases, cross tabulation of subscore for stool frequency: 0
[2]; Week 2 score 3, Week 0 score 3
  Number of cases, cross tabulation of subscore for stool frequency: 8
[2]; Week 4, score 0
  Cases by subscore for stool frequency, figure in parentheses: 11.8
  Number of cases by subscore for stool frequency: 6
[2]; Week 4, score 1
  Cases by subscore for stool frequency, figure in parentheses: 47.1
  Number of cases by subscore for stool frequency: 24
[2]; Week 4, score 2
  Cases by subscore for stool frequency, figure in parentheses: 25.5
  Number of cases by subscore for stool frequency: 13
[2]; Week 4, score 3
  Cases by subscore for stool frequency, figure in parentheses: 15.7
  Number of cases by subscore for stool frequency: 8
[2]; Week 4 score 0, Week 0 score 0
  Number of cases, cross tabulation of subscore for stool frequency: 2
[2]; Week 4 score 0, Week 0 score 1
  Number of cases, cross tabulation of subscore for stool frequency: 1
[2]; Week 4 score 0, Week 0 score 2
  Number of cases, cross tabulation of subscore for stool frequency: 3
[2]; Week 4 score 0, Week 0 score 3
  Number of cases, cross tabulation of subscore for stool frequency: 0
[2]; Week 4 score 1, Week 0 score 0
  Number of cases, cross tabulation of subscore for stool frequency: 0
[2]; Week 4 score 1, Week 0 score 1
  Number of cases, cross tabulation of subscore for stool frequency: 7
[2]; Week 4 score 1, Week 0 score 2
  Number of cases, cross tabulation of subscore for stool frequency: 12
[2]; Week 4 score 1, Week 0 score 3
  Number of cases, cross tabulation of subscore for stool frequency: 5
[2]; Week 4 score 2, Week 0 score 0
  Number of cases, cross tabulation of subscore for stool frequency: 0
[2]; Week 4 score 2, Week 0 score 1
  Number of cases, cross tabulation of subscore for stool frequency: 1
[2]; Week 4 score 2, Week 0 score 2
  Number of cases, cross tabulation of subscore for stool frequency: 6
[2]; Week 4 score 2, Week 0 score 3
  Number of cases, cross tabulation of subscore for stool frequency: 6
[2]; Week 4 score 3, Week 0 score 0
  Number of cases, cross tabulation of subscore for stool frequency: 0
[2]; Week 4 score 3, Week 0 score 1
  Number of cases, cross tabulation of subscore for stool frequency: 0
[2]; Week 4 score 3, Week 0 score 2
  Number of cases, cross tabulation of subscore for stool frequency: 0
[2]; Week 4 score 3, Week 0 score 3
  Number of cases, cross tabulation of subscore for stool frequency: 8
[2]; Week 8, score 0
  Cases by subscore for stool frequency, figure in parentheses: 21.6
  Number of cases by subscore for stool frequency: 11
[2]; Week 8, score 1
  Cases by subscore for stool frequency, figure in parentheses: 45.1
  Number of cases by subscore for stool frequency: 23
[2]; Week 8, score 2
  Cases by subscore for stool frequency, figure in parentheses: 17.6
  Number of cases by subscore for stool frequency: 9
[2]; Week 8, score 3
  Cases by subscore for stool frequency, figure in parentheses: 15.7
  Number of cases by subscore for stool frequency: 8
[2]; Week 8 score 0, Week 0 score 0
  Number of cases, cross tabulation of subscore for stool frequency: 2
[2]; Week 8 score 0, Week 0 score 1
  Number of cases, cross tabulation of subscore for stool frequency: 3
[2]; Week 8 score 0, Week 0 score 2
  Number of cases, cross tabulation of subscore for stool frequency: 4
[2]; Week 8 score 0, Week 0 score 3
  Number of cases, cross tabulation of subscore for stool frequency: 2
[2]; Week 8 score 1, Week 0 score 0
  Number of cases, cross tabulation of subscore for stool frequency: 0
[2]; Week 8 score 1, Week 0 score 1
  Number of cases, cross tabulation of subscore for stool frequency: 5
[2]; Week 8 score 1, Week 0 score 2
  Number of cases, cross tabulation of subscore for stool frequency: 11
[2]; Week 8 score 1, Week 0 score 3
  Number of cases, cross tabulation of subscore for stool frequency: 7
[2]; Week 8 score 2, Week 0 score 0
  Number of cases, cross tabulation of subscore for stool frequency: 0
[2]; Week 8 score 2, Week 0 score 1
  Number of cases, cross tabulation of subscore for stool frequency: 1
[2]; Week 8 score 2, Week 0 score 2
  Number of cases, cross tabulation of subscore for stool frequency: 5
[2]; Week 8 score 2, Week 0 score 3
  Number of cases, cross tabulation of subscore for stool frequency: 3
[2]; Week 8 score 3, Week 0 score 0
  Number of cases, cross tabulation of subscore for stool frequency: 0
[2]; Week 8 score 3, Week 0 score 1
  Number of cases, cross tabulation of subscore for stool frequency: 0
[2]; Week 8 score 3, Week 0 score 2
  Number of cases, cross tabulation of subscore for stool frequency: 1
[2]; Week 8 score 3, Week 0 score 3
  Number of cases, cross tabulation of subscore for stool frequency: 7
